{
  "source": "PubChem BioAssay AID743395",
  "about": "(Broad Institute, 2014)",
  "data": [
    {"test_system": "HepG2 viability, CellTiter-Glo ATP luminescence, 72 h", "assay": "viability loss in human hepatoma cells – cell-based, CellTiter-Glo luminescence, cherry-pick, set 2, cytotoxicity control, dose response (AID 743395)", "units": {"AC35": "µM"}, "values": [
      {"compound": "COc1ccc(C)cc1Nc1c2c(nc3ccccc13)CCC2", "AC35": 8.79},
      {"compound": "CN1/C(=C\\C=C2/SC(=S)NC2=O)C(C)(C)c2ccccc21", "AC35": 17.9},
      {"compound": "CC(C)(C)c1cc(C(=O)NN)n(Cc2ccc(Cl)cc2Cl)n1", "AC35": 18.7},
      {"compound": "COc1ccccc1C(=O)NC(=S)/C=C1/N(C)c2ccccc2C1(C)C", "AC35": 16},
      {"compound": "COc1ccc(S(=O)(=O)NCc2ccccn2)cc1NC(=O)c1ccccc1F", "AC35": 18.5},
      {"compound": "COc1ccc([N+](=O)[O-])cc1Nc1c2ccccc2nc2ccccc12", "AC35": 18.4},
      {"compound": "COc1ccccc1NC1=C(NC(C)=O)C(=O)c2ccccc2C1=O", "AC35": 12.2},
      {"compound": "O=C1C=C(NCCc2cc(Br)c(O)c(Br)c2)C(=O)c2ncccc21", "AC35": 6.95},
      {"compound": "Oc1ccc(/C=N/Nc2nc(-c3ccccc3F)nc3ccccc23)c(O)c1", "AC35": 15.6},
      {"compound": "Cc1ccc2c(C)c3ccc4ccccc4c3c[n+]2c1", "AC35": 5.47},
      {"compound": "Cc1noc(C)c1COc1ccc(C(=O)NNC(=O)c2ccccc2)cc1", "AC35": 12.2},
      {"compound": "O=C(CCCN1CCC(O)(c2cccc(C(F)(F)F)c2)CC1)c1ccc(F)cc1", "AC35": 22.2},
      {"compound": "O=C(CCCl)Nc1nc2c(s1)CCc1ccccc1-2", "AC35": 20.6},
      {"compound": "Cc1ccc(C(=O)NC(=S)NNC(=O)c2ccccc2O)cc1", "AC35": 17.2},
      {"compound": "CCCC(=O)NC1=C(Cl)C(=O)c2ccccc2C1=O", "AC35": 9.76},
      {"compound": "CC(=O)Nc1ccc(S(=O)(=O)NC2=C(N3CCN(Cc4ccccc4)CC3)C(=O)c3ccccc3C2=O)cc1", "AC35": 17.1},
      {"compound": "COc1ccc(NC(=O)Nc2ccc3c(c2)C(=O)N([C@H](C)CO)C[C@@H](C)[C@H](CN(C)Cc2ccc(C(F)(F)F)cc2)OCCCC[C@H](C)O3)cc1", "AC35": 13.9},
      {"compound": "C[C@H](CO)N1C[C@H](C)[C@H](CN(C)C(=O)NC2CCCCC2)Oc2cc(C#Cc3cccc(F)c3)ccc2S1(=O)=O", "AC35": 10.9},
      {"compound": "C[C@H]1CN([C@@H](C)CO)S(=O)(=O)c2ccc(C#Cc3ccc(F)cc3)cc2O[C@H]1CN(C)C(=O)NC1CCCC1", "AC35": 19.1},
      {"compound": "CCc1ccc(OCc2n[nH]c(=S)n2C(C)CCCC(C)C)cc1", "note": "(configuration not stated)", "AC35": 13.9},
      {"compound": "COC(=O)c1ccccc1-c1c2ccc(=N)cc-2oc2cc(N)ccc12", "AC35": 15.8},
      {"compound": "CC1=Nc2cc(C(=O)NCC3CCCO3)ccc2Sc2ccc(C)cc21", "note": "(configuration not stated)", "AC35": 13.5},
      {"compound": "O=C(NCc1ccccc1)C1Cc2c(-c3cccc(F)c3)ccnc2O1", "note": "(configuration not stated)", "AC35": 22.1},
      {"compound": "CCOc1ccc(C(=O)COC(=O)Cc2n[nH]c(=O)c3ccccc23)cc1", "AC35": 19.3},
      {"compound": "CC(=O)NC(c1ccc(C(C)C)cc1)c1ccc2cccnc2c1O", "note": "(configuration not stated)", "AC35": 0.861},
      {"compound": "O=C1/C(=C\\c2ccc(O)cc2)SC(=S)N1Cc1ccccc1", "AC35": 17.3},
      {"compound": "C[C@H]1CCC/C=C/[C@@H]2C[C@H](O)C[C@H]2[C@H](O)/C=C/C(=O)O1", "AC35": 0.115},
      {"compound": "Cc1ccc(-c2ccc3c(c2)O[C@@H](CN(C)Cc2ccccn2)[C@H](C)CN([C@H](C)CO)S3(=O)=O)cc1", "AC35": 15.3},
      {"compound": "Oc1cccc(/C=N/Nc2ccc(Cl)nn2)c1O", "AC35": 7.7},
      {"compound": "Cc1ccc(COc2ccccc2-c2cc(C(=O)N/N=C/c3cccnc3)[nH]n2)cc1", "AC35": 14.7},
      {"compound": "COc1cc(C(=O)N/N=C(\\c2ccccc2)c2ccccn2)cc(OC)c1OC", "AC35": 1.46},
      {"compound": "CC1(C(=O)NCc2cccs2)Cc2c(-c3ccc4c(c3)OCO4)ccnc2O1", "note": "(configuration not stated)", "AC35": 16.4},
      {"compound": "CC(C)(C)N(Cc1ccccc1)C(=O)c1cc2ccccc2o1", "AC35": 16.1},
      {"compound": "Nc1[nH]c(C(=O)c2ccccc2)c(-c2ccccc2C(F)(F)F)c1C(=O)NCCc1c[nH]c2ccccc12", "AC35": 22.4},
      {"compound": "CC(=O)Nc1sc2c(c1-c1nc3ccccc3s1)CN(C(C)C)CC2", "AC35": 3.4},
      {"compound": "COc1ccc(Nc2nc(-c3sc(C)nc3C)cs2)cc1", "AC35": 1.29},
      {"compound": "N#CC1=C(N)Oc2c(ccc3cccnc23)C1c1ccccc1", "note": "(configuration not stated)", "AC35": 6.64},
      {"compound": "Cc1ccc(C2(C)NC(=O)N(CC(=O)Nc3nc(-c4ccccn4)cs3)C2=O)cc1", "note": "(configuration not stated)", "AC35": 4.46},
      {"compound": "COC(=O)CSC1=C(C#N)C(c2ccc(C)o2)CC(=O)N1", "note": "(configuration not stated)", "AC35": 19.1},
      {"compound": "CCc1ccc(N2CC(C(=O)Nc3ccccc3N3CCCC3)CC2=O)cc1", "note": "(configuration not stated)", "AC35": 10.8},
      {"compound": "C[C@H]1CN([C@@H](C)CO)S(=O)(=O)c2ccc(C#Cc3ccc(F)cc3)cc2O[C@H]1CN(C)C(=O)NC1CCCCC1", "AC35": 11.9},
      {"compound": "Cc1ccc(/C=N/NC(=O)c2c(-c3ccccc3)noc2C)c(O)c1", "AC35": 18.4},
      {"compound": "Cc1cc(C(=O)N/N=C/c2ccc(N(C)C)cc2)c2ccccc2n1", "AC35": 8.84},
      {"compound": "CCN1/C(=C\\c2ccc3cc(C)ccc3[n+]2CC)Sc2cc(C)c(C)cc21", "AC35": 3.19},
      {"compound": "COc1cccc2c1C(=O)c1c(O)c3c(c(O)c1C2=O)CC(O)(C(=O)CO)CC3OC1CC(N(C)C)C(O)C(C)O1", "note": "(configuration not stated)", "AC35": 0.0659},
      {"compound": "O=[N+]([O-])c1ccc(/C=C/C2=NN(c3ccccc3)C(c3ccco3)C2)o1", "note": "(configuration not stated)", "AC35": 15.1},
      {"compound": "COc1ccccc1NC(=O)CSc1ccc(-c2ccccn2)nn1", "AC35": 20.4},
      {"compound": "Cc1cc2c(cc1S(=O)(=O)Nc1ccc(F)cc1)n(C)c(=O)c(=O)n2C", "AC35": 18.2},
      {"compound": "Cc1occc1C(=O)N/N=C/c1c(O)ccc2ccccc12", "AC35": 6.44},
      {"compound": "CCOc1ccc(C)cc1S(=O)(=O)n1cnc2ccccc21", "AC35": 11.7},
      {"compound": "COc1ccc([C@H]2C[C@H](O)[C@@H](n3cc(-c4ccc(F)cc4)nn3)CN2Cc2cccs2)cc1", "AC35": 6.12},
      {"compound": "CCc1ccc(OCCNc2cc(N3CCNC(C)C3)ccc2[N+](=O)[O-])cc1", "note": "(configuration not stated)", "AC35": 9.58}
    ]}
  ]
}
